Columns and labels:
human recombinant COX-2 = molecular target: T1, human recombinant COX-2 (Homo sapiens, UniProt P35354); test: COX (ovine) Inhibitor Screening Assay, COX-2; assay type: biochemical; conditions: for IC50: human recombinant COX-2, PGF2α by EIA, 18 hours of incubation; for selectivity of inhibition, COX-2 versus COX-1, in words: ovine COX-1 versus human recombinant COX-2
T1 sequence (P35354 18-604): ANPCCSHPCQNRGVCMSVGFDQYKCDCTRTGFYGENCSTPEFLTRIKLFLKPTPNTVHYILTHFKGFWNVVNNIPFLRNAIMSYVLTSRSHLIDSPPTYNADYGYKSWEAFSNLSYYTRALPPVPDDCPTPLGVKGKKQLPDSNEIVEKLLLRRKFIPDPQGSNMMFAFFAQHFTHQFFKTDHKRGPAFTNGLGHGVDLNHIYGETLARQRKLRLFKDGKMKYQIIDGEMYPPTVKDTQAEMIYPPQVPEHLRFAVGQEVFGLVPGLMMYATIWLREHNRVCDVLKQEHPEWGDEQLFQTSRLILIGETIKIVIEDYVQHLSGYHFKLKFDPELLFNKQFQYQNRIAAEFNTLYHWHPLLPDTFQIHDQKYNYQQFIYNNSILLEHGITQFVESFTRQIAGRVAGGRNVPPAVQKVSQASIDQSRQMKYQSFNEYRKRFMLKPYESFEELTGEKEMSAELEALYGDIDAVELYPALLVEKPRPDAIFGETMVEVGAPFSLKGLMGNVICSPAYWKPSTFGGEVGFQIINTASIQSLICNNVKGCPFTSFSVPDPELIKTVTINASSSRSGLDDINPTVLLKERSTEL
Method: (§1) The COX (ovine) Inhibitor Screening Assay was performed mainly to determine the selective inhibition of tested compounds (6, 7, 8 and 9) towards the ovine COX-1 and human recombinant COX-2 isoenzymes. Adding arachidonic acid (AA) helped convert the COX component into PGG2, followed by a reduction of PGG2 into PGH2. The following addition of SnCl2 converted PGH2 into PGF2α. The assay directly measures the PGF2α via enzyme immunoassay (EIA) using a broadly specific antiserum that is bound to all PG tracers. Depending on the tested compounds inhibitory effect, the concentration of PGF2α in each well varied and was inversely proportional to the amount of PG tracers that were able to bind to the antiserum. PG tracers-antiserum complex was left to bind to the mouse monoclonal anti-rabbit antibody that had been coated to the well during the 18 hours of incubation. Ellman's reagent was added to give distinct yellow coloration to the products from this enzymatic reaction, which absorbed strongly at 412 nm. The intensity of the color was proportional to the amount of PG tracers-antiserum complex bound to the well, which was inversely proportional to the concentration of PGF2α present.
(§2) The inhibitory activity of tested compounds was determined based on IC50 values, whereas the selectivity was based on their selectivity indices (SI), which are defined as COX-1 IC50/COX-2 IC50. In the assay system, indomethacin was used as a non-selective COX inhibitor standard, while NS-398 was used as a COX-2 selective inhibitor standard.

ovine COX-1 = molecular target: T2, ovine COX-1 (Ovis aries, UniProt P05979); test: COX (ovine) Inhibitor Screening Assay, COX-1; assay type: biochemical; conditions: PGF2α by EIA, 18 hours of incubation
T2 sequence (P05979 25-600): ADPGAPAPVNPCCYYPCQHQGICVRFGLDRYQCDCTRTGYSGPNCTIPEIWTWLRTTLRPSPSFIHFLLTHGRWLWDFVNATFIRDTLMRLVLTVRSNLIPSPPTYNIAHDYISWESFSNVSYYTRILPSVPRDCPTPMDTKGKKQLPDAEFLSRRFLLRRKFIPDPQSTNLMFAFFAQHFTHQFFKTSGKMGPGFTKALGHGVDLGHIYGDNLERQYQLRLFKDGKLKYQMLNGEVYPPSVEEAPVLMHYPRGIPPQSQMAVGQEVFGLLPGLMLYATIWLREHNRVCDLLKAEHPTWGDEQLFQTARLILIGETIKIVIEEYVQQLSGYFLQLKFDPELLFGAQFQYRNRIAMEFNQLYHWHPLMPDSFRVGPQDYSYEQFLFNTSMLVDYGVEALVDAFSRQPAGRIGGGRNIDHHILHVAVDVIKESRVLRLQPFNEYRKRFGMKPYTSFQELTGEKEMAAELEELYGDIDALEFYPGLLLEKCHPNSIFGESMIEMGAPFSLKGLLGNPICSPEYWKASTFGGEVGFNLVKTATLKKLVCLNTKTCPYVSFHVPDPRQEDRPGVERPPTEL
Method: as §1, §2

O=c1[nH]c(Cc2ccc(F)cc2)nc2sc3c(c12)CCC3 [Compound 6, 2-(4-Fluorobenzyl)-3,5,6,7-tetrahydro-4H-cyclopenta[4,5]thieno[2,3-d]pyrimidin-4-one]
SI (selectivity index, COX-1 IC50/COX-2 IC50) (human recombinant COX-2): 0.68
IC50 (human recombinant COX-2): 56.4 µM
selectivity of inhibition, COX-2 versus COX-1, in words (human recombinant COX-2): mild selective inhibition against COX-2
IC50 (ovine COX-1): 38.5 µM

COc1ccc(Cc2nc3sc4c(c3c(=O)[nH]2)CCC4)cc1 [Compound 7, 2-(4-Methoxybenzyl)-3,5,6,7-tetrahydro-4H-cyclopenta[4,5]thieno[2,3-d]pyrimidin-4-one]
SI (selectivity index, COX-1 IC50/COX-2 IC50) (human recombinant COX-2): 6.98
IC50 (human recombinant COX-2): 32.1 µM
selectivity of inhibition, COX-2 versus COX-1, in words (human recombinant COX-2): mild selective inhibition against COX-2
IC50 (ovine COX-1): 224 µM

COc1ccc(-c2nc3sc4c(c3c(=O)[nH]2)CCC4)cc1 [Compound 8, 2-(4-Methoxyphenyl)-3,5,6,7-tetrahydro-4H-cyclopenta[4,5]thieno[2,3-d]pyrimidin-4-one]
SI (selectivity index, COX-1 IC50/COX-2 IC50) (human recombinant COX-2): 11.41
IC50 (human recombinant COX-2): 7.3 µM
selectivity of inhibition, COX-2 versus COX-1, in words (human recombinant COX-2): mild selective inhibition against COX-2
IC50 (ovine COX-1): 83.8 µM

O=C(Nc1nc2sc3c(c2c(=O)[nH]1)CCC3)c1ccc(F)cc1 [Compound 9, 4-Fluoro-N-(4-oxo-3,5,6,7-tetrahydro-4H-cyclopenta[4,5]thieno[2,3-d]pyrimidin-2-yl)benzamide]
SI (selectivity index, COX-1 IC50/COX-2 IC50) (human recombinant COX-2): 1.26
IC50 (human recombinant COX-2): 54.9 µM
selectivity of inhibition, COX-2 versus COX-1, in words (human recombinant COX-2): mild selective inhibition against COX-2
IC50 (ovine COX-1): 69.2 µM

Source: patent US12227516B1, “Selective COX-2 inhibition of 2-(substituted benzyl)-3,5,6,7-tetrahydro-4H-cyclopenta[4,5]thieno[2,3-d]pyrimidin-4-ones and 4-fluoro-n-(4-oxo-3,5,6,7-tetrahydro-4H-cyclopenta[4,5]thieno[2,3-d]pyrimidin-2-yl)benzamide as anti-inflammatory agents” (KING FAISAL UNIVERSITY, priority 2023, dated 2025)
